Laboratory results reported in patent publication US10906940B2, “Antimicrobial peptides, pharmaceutical compositions, and methods of use thereof” (priority 2014, dated 2021).
In brackets after ≈: the same amount, converted by molar mass. Where a SMILES comes first, the peptide text is derived from it. Bridges are numbered along the chain shown (N, C = ends). [ ]: non-standard residue; d: D form. The star is where a group is joined. Tridecanoyl = CCCCCCCCCCCCC(=O)*; dOrn = NCCC[C@@H](N)C(=O)O

How the values were obtained:
S. aureus 12 = test: microbe, parasite or virus in culture; assay type: cell-based, Staphylococcus aureus; details: 12
Text: (§1) The same MIC assay as in Example 6 was used to determine the antimicrobial susceptibility of Compound A, L-form (FIG. 15), and several variants. One variant was Compound A, D-form, with D-Lysine at position 7. Compound B is a variant in the fatty acid chain, with a fatty acid chain composition of C15H29O, and having D-Lys at position 7. Compound C is a variant in the fatty acid chain with a fatty acid chain composition of C11H21O, and having D-Lys at position 7. Variant D is a sequence variant with Phe at position 6 of the cyclic peptide, and having D-Lys at position 7. All variants were chemically synthesized.

S. aureus 2 = test: microbe, parasite or virus in culture; assay type: cell-based, Staphylococcus aureus; details: 2
Text: as §1

S. aureus 8 = test: microbe, parasite or virus in culture; assay type: cell-based, Staphylococcus aureus; details: 8
Text: as §1

S. aureus 14 = test: microbe, parasite or virus in culture; assay type: cell-based, Staphylococcus aureus; details: 14
Text: as §1

S. aureus 19 = test: microbe, parasite or virus in culture; assay type: cell-based, Staphylococcus aureus; details: 19
Text: as §1

S. aureus 10 = test: microbe, parasite or virus in culture; assay type: cell-based, Staphylococcus aureus; details: 10
Text: as §1

S. aureus 4 = test: microbe, parasite or virus in culture; assay type: cell-based, Staphylococcus aureus; details: 4
Text: as §1

S. aureus 6 = test: microbe, parasite or virus in culture; assay type: cell-based, Staphylococcus aureus; details: 6
Text: as §1

[1] = system: S. Bareilly CVM40145 (ACC-1); assay type: cell-based, Salmonella
Text: as §1

[2] = system: S. Keur massar CVM 40135 (shv12); assay type: cell-based, Salmonella
Text: as §1

[3] = system: S. Typhimurium CVM 40117 (ctx-m-5); assay type: cell-based, Salmonella
Text: as §1

[4] = system: S. Newport CVM 40115 (cmy 2); assay type: cell-based, Salmonella
Text: as §1

[5] = system: S. Heidelberg CVM 40140 (cmy-2); assay type: cell-based, Salmonella
Text: as §1

[6] = system: Salmonella CVM 40118 (oxa-1); assay type: cell-based
Text: as §1

[7] = system: Serratia marcescens SAMN 04276914; assay type: cell-based; details: SAMN 04276914
Text: as §1

[8] = system: Enterobacter cloacae SBJ-9395; assay type: cell-based; details: SBJ-9395
Text: as §1

[9] = system: Salmonella CVM 1290 (cmy2); assay type: cell-based
Text: as §1

[10] = system: Salmonella CVM 40119 (tem 12); assay type: cell-based
Text: as §1

[11] = system: Serratia marcescens SAMN04022954; assay type: cell-based; details: SAMN04022954
Text: as §1

[12] = system: Serratia marcescens SBJ-9047; assay type: cell-based; details: SBJ-9047
Text: as §1

[13] = system: Serratia marcescens SAMN 04276915; assay type: cell-based; details: SAMN 04276915
Text: as §1

[14] = system: Serratia marcescens SBJ-8283; assay type: cell-based; details: SBJ-8283
Text: as §1

[15] = system: E. coli CVM 40137 (DHA-1); assay type: cell-based, Escherichia coli
Text: as §1

[16] = system: E. coli CVM 40141 (imp-1); assay type: cell-based, Escherichia coli
Text: as §1

E. coli CVM40148 (veb-1) = assay type: cell-based, Escherichia coli
Text: as §1

[17] = system: E. coli CVM 40127 (oxa-2); assay type: cell-based, Escherichia coli
Text: as §1

E. coli CVM 15104 (shv3) = assay type: cell-based, Escherichia coli
Text: as §1

[18] = system: E. coli CVM 40139 (fox-1); assay type: cell-based, Escherichia coli
Text: as §1

E. coli CVM 15103 (tem2) = assay type: cell-based, Escherichia coli
Text: as §1

[19] = system: E. cloacae CVM 15101 (P99); assay type: cell-based, Enterobacter cloacae
Text: as §1

[20] = system: P. aeruginosa CVM 40144 (PER-1); assay type: cell-based, Pseudomonas aeruginosa
Text: as §1

E. faecalis ATCC 51575 = test: microbe, parasite or virus in culture; assay type: cell-based, Enterococcus faecalis; details: ATCC 51575
Text: as §1

E. faecalis BAA-2365 = test: microbe, parasite or virus in culture; assay type: cell-based, Enterococcus faecalis; details: BAA-2365
Text: as §1

E. faecium ATCC 700221 = test: microbe, parasite or virus in culture; assay type: cell-based; details: ATCC 700221
Text: as §1

E. faecium ATCC 2320 = test: microbe, parasite or virus in culture; assay type: cell-based; details: ATCC 2320
Text: as §1

E. faecium BAA-2318 = test: microbe, parasite or virus in culture; assay type: cell-based; details: BAA-2318
Text: as §1

[21] = system: K. pneumonia CVM 15105 (shv5); assay type: cell-based, Klebsiella pneumoniae
Text: as §1

[22] = system: K. pneumoniae CVM 9246 (shv18, oxa2); assay type: cell-based, Klebsiella pneumoniae
Text: as §1

[23] = system: K. pneumonia CVM 40142 (ges-1); assay type: cell-based, Klebsiella pneumoniae
Text: as §1

[24] = system: K. pneumoniae CVM 15102 (shv5); assay type: cell-based, Klebsiella pneumoniae
Text: as §1

## CCCCCCCCCCCCC(=O)N[C@H](CCCN)C(=O)N[C@H](C(=O)N[C@@H]1C(=O)N[C@H](CCCN)C(=O)N[C@@H](CO)C(=O)N[C@@H](Cc2ccc(O)cc2)C(=O)N[C@H](CCCCN)C(=O)N[C@H](CO)C(=O)N[C@@H]([C@@H](C)CC)C(=O)N2CCC[C@H]2C(=O)N[C@@H]([C@@H](C)CC)C(=O)N2CCC[C@H]2C(=O)N[C@@H]([C@@H](C)CC)C(=O)O[C@@H]1C)C(C)C [Compound A D-form] (Tridecanoyl-[dOrn]VT[dOrn]SY[dK][dS]IPIPI; ester 3-C)
S. aureus 12
  MIC: 4 µg/mL (≈ 2.46 µM)
S. aureus 2
  MIC: 4 µg/mL (≈ 2.46 µM)
S. aureus 8
  MIC: 4 µg/mL (≈ 2.46 µM)
S. aureus 14
  MIC: 8 µg/mL (≈ 4.93 µM)
S. aureus 19
  MIC: 8 µg/mL (≈ 4.93 µM)
S. aureus 10
  MIC: 8 µg/mL (≈ 4.93 µM)
S. aureus 4
  MIC: 4 µg/mL (≈ 2.46 µM)
S. aureus 6
  MIC: 4 µg/mL (≈ 2.46 µM)
[1]
  MIC: 8 µg/mL (≈ 4.93 µM)
[2]
  MIC: 16 µg/mL (≈ 9.85 µM)
[3]
  MIC: 8 µg/mL (≈ 4.93 µM)
[4]
  MIC: 8 µg/mL (≈ 4.93 µM)
[5]
  MIC: 16 µg/mL (≈ 9.85 µM)
[6]
  MIC: 4 µg/mL (≈ 2.46 µM)
[7]
  MIC: 32 µg/mL (≈ 19.7 µM)
[8]
  MIC: 8 µg/mL (≈ 4.93 µM)
[9]
  MIC: 8 µg/mL (≈ 4.93 µM)
[10]
  MIC: 16 µg/mL (≈ 9.85 µM)
[11]
  MIC: 32 µg/mL (≈ 19.7 µM)
[12]
  MIC: 32 µg/mL (≈ 19.7 µM)
[13]
  MIC: 64 µg/mL (≈ 39.4 µM)
[14]
  MIC: 16 µg/mL (≈ 9.85 µM)
[15]
  MIC: 8 µg/mL (≈ 4.93 µM)
[16]
  MIC: 16 µg/mL (≈ 9.85 µM)
E. coli CVM40148 (veb-1)
  MIC: 8 µg/mL (≈ 4.93 µM)
[17]
  MIC: 8 µg/mL (≈ 4.93 µM)
E. coli CVM 15104 (shv3)
  MIC: 8 µg/mL (≈ 4.93 µM)
[18]
  MIC: 8 µg/mL (≈ 4.93 µM)
E. coli CVM 15103 (tem2)
  MIC: 8 µg/mL (≈ 4.93 µM)
[19]
  MIC: 8 µg/mL (≈ 4.93 µM)
[20]
  MIC: 16 µg/mL (≈ 9.85 µM)
E. faecalis ATCC 51575
  MIC: 8 µg/mL (≈ 4.93 µM)
E. faecalis BAA-2365
  MIC: 8 µg/mL (≈ 4.93 µM)
E. faecium ATCC 700221
  MIC: 8 µg/mL (≈ 4.93 µM)
E. faecium ATCC 2320
  MIC: 8 µg/mL (≈ 4.93 µM)
E. faecium BAA-2318
  MIC: 4 µg/mL (≈ 2.46 µM)
[21]
  MIC: 8 µg/mL (≈ 4.93 µM)
[22]
  MIC: 8 µg/mL (≈ 4.93 µM)
[23]
  MIC: 8 µg/mL (≈ 4.93 µM)
[24]
  MIC: 8 µg/mL (≈ 4.93 µM)
